Results from patent US6339045B1, “N-(unsubstituted or substituted)-4-substituted-6-(unsubstituted or substituted)phenoxy-2-pyridinecarboxamides or thiocarboxamides, processes for producing the same, and herbicides” (Kureha Kagaku Kogyo Kabushiki Kaisha, priority 1995, dated 2002).

Columns and labels:
Assay in all cases: Herbicidal effect by foliage and soil treatment
Format in all cases: in vivo
Details in all cases: 10 g ai/10a, evaluated after 14 days
[1] = test system: velvetleaf (Abutilon theophrasti)
Description: (§1) Experiment for Determination of Herbicidal Effect by Foliate and Soil Treatment Seeds of redroot pigweed (Amaranthus retroflexus), common blackjack (Bidens pilosa), kediock (Sinapis arvensis), common chickweed (Stellaria media), sicklepod (Cassia obtusifolia), black nightshade (Solanum nigrum), velvetleaf (Abutilon theophrasti), field bindweed (Convolvulus arvensis), wild chamomile (Matricaria chamomilla), cleavers (Galium aparine) and […] (Veronica hederaefolia), were uniformly sowed over a horticultural granular soil (produced by KUREHA CHEMICAL INDUSTRY, CO., LTD.; the same soil was used hereinafter) filled in a planter. The planter was placed in a greenhouse (maintained at 19 to 25° C.) to sprout these plants. Two seedlings of each sprouted plant were transplanted to a 10 cm-diameter pot filled with the horticultural granular soil and cultivated in the greenhouse (maintained at 19 to 25° C.) until reaching a cotyledonal to bifoliate period suited to the foliage and soil treatment. […] Next, additional amounts of Tween 20 and water were added to the obtained solution or suspension to produce a test solution. The plants prepared in the above (1) were placed within a frame having a predetermined inside area, and uniformly sprayed with the test solution using a sprayer such that the amount of each compound applied was controlled to a predetermined level. The plants sprayed with the test solution were placed again in the greenhouse (maintained at 19 to 25° C.) and cultivated therein. After 14 days, the degree of growth of each plant cultivated in the treated region was compared with that of plant cultivated in non-treated region, and evaluated according to the following ratings. The herbicidal activity of each test compound was represented by these ratings

[2] = test system: black nightshade (Solanum nigrum)
Description: as §1

[3] = test system: redroot pigweed (Amaranthus retroflexus)
Description: as §1

[4] = test system: field bindweed (Convolvulus arvensis)
Description: as §1

[5] = test system: kediock (Sinapis arvensis)
Description: as §1

[6] = test system: sicklepod (Cassia obtusifolia)
Description: as §1

[7] = test system: common chickweed (Stellaria media)
Description: as §1

[8] = test system: common blackjack (Bidens pilosa)
Description: as §1

[9] = test system: wild chamomile (Matricaria chamomilla)
Description: as §1

[10] = test system: ivyleafspeedwell (Veronica hederaefolia)
Description: as §1

[11] = test system: cleavers (Galium aparine)
Description: as §1

| SMILES | herbicidal activity rating, AT (Abutilon theophrasti) [1] | herbicidal activity rating, SN (Solanum nigrum) [2] | herbicidal activity rating, AR (Amaranthus retroflexus) [3] | herbicidal activity rating, CA (Convolvulus arvensis) [4] | herbicidal activity rating, SA (Sinapis arvensis) [5] | herbicidal activity rating, CO (Cassia obtusifolia) [6] | herbicidal activity rating, SM (Stellaria media) [7] | herbicidal activity rating, BP (Bidens pilosa) [8] | herbicidal activity rating, MC (Matricaria chamomilla) [9] | herbicidal activity rating, VH (Veronica hederaefolia) [10] | herbicidal activity rating, GA (Galium aparine) [11] |
| --- | --- | --- | --- | --- | --- | --- | --- | --- | --- | --- | --- |
| COc1cc(Oc2cccc(C(F)(F)F)c2)nc(C(=O)Nc2ccccc2)c1 [Compound I-1, N-phenyl-4-methoxy-6-{3-(trifluoromethyl)phenoxy}-2-pyridine carboxamide] | 4 (percentage of weeds killed was not less than 60% and less than 80%) | 5 (percentage of weeds killed was not less than 80%) | 5 (percentage of weeds killed was not less than 80%) | 4 (percentage of weeds killed was not less than 60% and less than 80%) | 5 (percentage of weeds killed was not less than 80%) | 5 (percentage of weeds killed was not less than 80%) | 4 (percentage of weeds killed was not less than 60% and less than 80%) | 5 (percentage of weeds killed was not less than 80%) | 4 (percentage of weeds killed was not less than 60% and less than 80%) | 5 (percentage of weeds killed was not less than 80%) | 5 (percentage of weeds killed was not less than 80%) |
| COc1cc(Oc2cccc(C(F)(F)F)c2)nc(C(=O)Nc2ccc(Cl)cc2)c1 [Compound I-2] | 4 (percentage of weeds killed was not less than 60% and less than 80%) | 5 (percentage of weeds killed was not less than 80%) | 5 (percentage of weeds killed was not less than 80%) | 5 (percentage of weeds killed was not less than 80%) | 5 (percentage of weeds killed was not less than 80%) | 5 (percentage of weeds killed was not less than 80%) | 4 (percentage of weeds killed was not less than 60% and less than 80%) | 5 (percentage of weeds killed was not less than 80%) | 3 (percentage of weeds killed was not less than 40% and less than 60%) | 5 (percentage of weeds killed was not less than 80%) | 5 (percentage of weeds killed was not less than 80%) |
| COc1cc(Oc2cccc(C(F)(F)F)c2)nc(C(=O)Nc2ccc(F)cc2)c1 [Compound I-11] | 3 (percentage of weeds killed was not less than 40% and less than 60%) | 5 (percentage of weeds killed was not less than 80%) | 5 (percentage of weeds killed was not less than 80%) | 4 (percentage of weeds killed was not less than 60% and less than 80%) | 5 (percentage of weeds killed was not less than 80%) | 5 (percentage of weeds killed was not less than 80%) | 4 (percentage of weeds killed was not less than 60% and less than 80%) | 5 (percentage of weeds killed was not less than 80%) | 4 (percentage of weeds killed was not less than 60% and less than 80%) | 5 (percentage of weeds killed was not less than 80%) | 5 (percentage of weeds killed was not less than 80%) |
| COc1cc(Oc2cccc(OC(F)(F)F)c2)nc(C(=O)Nc2ccccc2)c1 [Compound I-20, N-phenyl-4-methoxy-6-{3-(trifluoromethoxy)phenoxy}-2-pyridine carboxamide] | 4 (percentage of weeds killed was not less than 60% and less than 80%) | 5 (percentage of weeds killed was not less than 80%) | 5 (percentage of weeds killed was not less than 80%) | 4 (percentage of weeds killed was not less than 60% and less than 80%) | 5 (percentage of weeds killed was not less than 80%) | 5 (percentage of weeds killed was not less than 80%) | 5 (percentage of weeds killed was not less than 80%) | 5 (percentage of weeds killed was not less than 80%) | 4 (percentage of weeds killed was not less than 60% and less than 80%) | 5 (percentage of weeds killed was not less than 80%) | 5 (percentage of weeds killed was not less than 80%) |
| CCCNC(=O)c1cc(OC)cc(Oc2cccc(C(F)(F)F)c2)n1 [Compound I-33, N-(n-propyl)-4-methoxy-6-{3-(trifluoromethyl)phenoxy}-2-pyridine carboxamide] | 5 (percentage of weeds killed was not less than 80%) | 5 (percentage of weeds killed was not less than 80%) | 5 (percentage of weeds killed was not less than 80%) | 4 (percentage of weeds killed was not less than 60% and less than 80%) | 5 (percentage of weeds killed was not less than 80%) | 5 (percentage of weeds killed was not less than 80%) | 5 (percentage of weeds killed was not less than 80%) | 5 (percentage of weeds killed was not less than 80%) | 5 (percentage of weeds killed was not less than 80%) | 5 (percentage of weeds killed was not less than 80%) | 5 (percentage of weeds killed was not less than 80%) |
| CCCNC(=S)c1cc(OC)cc(Oc2cccc(C(F)(F)F)c2)n1 [Compound I-34, N-(n-propyl)-4-methoxy-6-{3-(trifluoromethyl)phenoxy}-2-pyridine thiocarboxamide] | 5 (percentage of weeds killed was not less than 80%) | 5 (percentage of weeds killed was not less than 80%) | 5 (percentage of weeds killed was not less than 80%) | 4 (percentage of weeds killed was not less than 60% and less than 80%) | 5 (percentage of weeds killed was not less than 80%) | 5 (percentage of weeds killed was not less than 80%) | 5 (percentage of weeds killed was not less than 80%) | 5 (percentage of weeds killed was not less than 80%) | 5 (percentage of weeds killed was not less than 80%) | 5 (percentage of weeds killed was not less than 80%) | 5 (percentage of weeds killed was not less than 80%) |
